{"source": "patent US20240075093A1", "about": "“COMPOSITIONS AND METHODS OF TREATING A PI3K MEDIATED DISEASE” (VIRGINIA TECH INTELLECTUAL PROPERTIES, INC., priority 2020, published 2024)", "key": {"U87MG cells": {"system": "U87MG cells", "experiment": "MTS cell viability assay", "type": "cell-based, human", "conditions": "20 uM TGX-221 and 50 uM TMZ, 4 days, MTS", "description": "Cell viability was measured by the MTS assay. P values were determined using the student t test or one-way ANOVA. Error bars represent three independent experiments.\nCell viability was determined using the MTS viability assay. The vehicle DMSO was the control and set as 100%. Treated cells were normalized to DMSO-treated cells. […] (FIG. 43D) Scores of Excess Over Bliss in FIG. 43C calculated using the Bliss Independence model. One-way ANOVA and student t test were used to determine statistical significance.\nCell viability was determined by the MTS cell viability assay (Promega) as described previously 21,24-27. In brief, 250 to 1,000 cells were plated in the wells of a 96-well plate-based upon the cell growth rate. Because the drug treatment usually takes 6-7 days, fast-growing cells could be over-grown if plated at a high cell density. For αCT1 treatment experiments, Applicant intended to plate cells at a low density to minimize the formation of gap junctions, and thus, more Cx43-hemichannels can be present. […] At each hour time point, the absorbance at 490 nm was measured using a FilterMax F3 microplate reader (Molecular Devices, LLC) according to the manufacturer's instructions. Percent cell viability was obtained by dividing the absorbance of treatment groups to those of untreated and respective vehicle control groups."}, "[1]": {"system": "PI3K/AKT signaling in SF295 cells", "experiment": "immunoblotting of PI3K/AKT signaling in SF295 cells", "type": "cell-based"}, "tumor growth in mice": {"system": "tumor growth in mice", "experiment": "GBM tumor growth in mice", "type": "in vivo"}, "LN229/GSCs": {"system": "LN229/GSCs", "experiment": "wound-healing (migration) assay", "type": "cell-based", "conditions": "8 μM, 24 hours", "description": "(§1) (FIG. 8A) Wound-healing assay. Cells were plated confluently and then treated with PI3K isoform-selective inhibitors at 8 μM for 24 hours. Cells were imaged at 0- and 24-hour time point. Images of 24-hour time point are shown. Scale bar: […]. (FIG. 8B-8D) Quantification of migration distance. Images from three different areas were analyzed using Image J. Migration distances were obtained by subtracting 24-hour measurements with those of 0-hour."}, "SF295 cells": {"system": "SF295 cells", "experiment": "wound-healing (migration) assay", "type": "cell-based", "conditions": "8 μM, 24 hours", "description": "as §1"}, "p110b": {"molecular_target": "p110b (Homo sapiens, UniProt P42338)", "sequence (P42338 whole entry, the tested form may be a part)": "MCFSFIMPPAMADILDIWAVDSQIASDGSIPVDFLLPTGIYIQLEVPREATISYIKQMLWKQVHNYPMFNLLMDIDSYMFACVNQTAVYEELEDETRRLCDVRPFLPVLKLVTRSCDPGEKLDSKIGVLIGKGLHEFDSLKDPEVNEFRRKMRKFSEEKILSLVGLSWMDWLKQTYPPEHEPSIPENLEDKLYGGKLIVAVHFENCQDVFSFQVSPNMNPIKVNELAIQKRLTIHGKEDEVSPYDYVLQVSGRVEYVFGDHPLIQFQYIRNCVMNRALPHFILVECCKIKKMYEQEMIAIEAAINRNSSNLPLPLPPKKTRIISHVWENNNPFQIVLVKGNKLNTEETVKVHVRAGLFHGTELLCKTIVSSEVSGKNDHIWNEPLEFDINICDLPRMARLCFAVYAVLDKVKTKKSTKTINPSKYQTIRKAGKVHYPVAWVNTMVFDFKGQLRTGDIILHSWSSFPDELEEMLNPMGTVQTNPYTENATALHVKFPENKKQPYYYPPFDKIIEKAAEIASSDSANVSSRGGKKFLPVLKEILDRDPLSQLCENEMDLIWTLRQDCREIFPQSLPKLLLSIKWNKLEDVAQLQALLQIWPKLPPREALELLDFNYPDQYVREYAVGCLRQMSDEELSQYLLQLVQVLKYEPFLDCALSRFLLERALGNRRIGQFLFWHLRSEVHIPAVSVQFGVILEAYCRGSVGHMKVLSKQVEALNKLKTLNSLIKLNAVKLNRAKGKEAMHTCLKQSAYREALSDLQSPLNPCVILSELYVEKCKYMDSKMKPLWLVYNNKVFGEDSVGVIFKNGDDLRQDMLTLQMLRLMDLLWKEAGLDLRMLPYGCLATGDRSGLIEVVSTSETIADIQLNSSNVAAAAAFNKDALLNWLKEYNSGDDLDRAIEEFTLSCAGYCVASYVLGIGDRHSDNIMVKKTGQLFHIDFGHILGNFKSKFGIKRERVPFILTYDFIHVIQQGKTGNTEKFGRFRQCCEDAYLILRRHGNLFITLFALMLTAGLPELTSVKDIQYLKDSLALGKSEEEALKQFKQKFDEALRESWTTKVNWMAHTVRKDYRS", "experiment": "p110b activity ELISA (cell-free kinase assay)", "type": "biochemical", "description": "The activity of the p110b PI3K catalytic subunit was monitored via ELISA upon increasing doses of Ante-Selectide-18.\n(§2) Relative activity is the ratio of respective treated groups to their non-treated controls.\n(FIG. 51A) 3D of a p110β/p85α complex determined by SWISS-MODEL and Cluspro. (FIG. 51B) Protein sequences were aligned using COBALT. C2 domains (top) are show. Red bars: same residues; Grey bars: different residues; Red lines: missing residues. […] in p110β C2 (bottom) is shown and termed as 018. Docking of p110β and p85α (FIG. 51C) or p110α and p85α (FIG. 51D) was done by SWISS-MODEL, Cluspro, and Chimera. The 018 motif is labeled in magenta. Deletion of β18 motif (FIG. 51E) changed the 3D shapes of p110β/p85 (FIG. 51C). (FIG. 51F) p110β cell-free kinase assay. An enzyme-linked immunosorbent assay (ELISA) was used to measure levels of lipids PIP2/PIP3. (FIG. 51G) Effect of PI3K inhibitors on p110s using ELISA. p110β (FIG. 51H) or p110α (FIG. 51I) was docked with Selectide-18-bound p85α using Cluspro/Chimera.\n(§3) Applicant also included a control scramble peptide containing the antennapedia sequence followed by the amino acid sequence of Ante-Selectide-18 randomly scrambled. […] Applicant reports that this drug is not effective at inhibiting the kinase activity of p110b or other PI3K subunits at 100 nM, showing the promise of the Ante-Selectide-18 peptide as a potent selective p110b inhibitor at a low dose."}, "p110c": {"molecular_target": "p110c (Homo sapiens, UniProt P42336)", "sequence (P42336 whole entry)": "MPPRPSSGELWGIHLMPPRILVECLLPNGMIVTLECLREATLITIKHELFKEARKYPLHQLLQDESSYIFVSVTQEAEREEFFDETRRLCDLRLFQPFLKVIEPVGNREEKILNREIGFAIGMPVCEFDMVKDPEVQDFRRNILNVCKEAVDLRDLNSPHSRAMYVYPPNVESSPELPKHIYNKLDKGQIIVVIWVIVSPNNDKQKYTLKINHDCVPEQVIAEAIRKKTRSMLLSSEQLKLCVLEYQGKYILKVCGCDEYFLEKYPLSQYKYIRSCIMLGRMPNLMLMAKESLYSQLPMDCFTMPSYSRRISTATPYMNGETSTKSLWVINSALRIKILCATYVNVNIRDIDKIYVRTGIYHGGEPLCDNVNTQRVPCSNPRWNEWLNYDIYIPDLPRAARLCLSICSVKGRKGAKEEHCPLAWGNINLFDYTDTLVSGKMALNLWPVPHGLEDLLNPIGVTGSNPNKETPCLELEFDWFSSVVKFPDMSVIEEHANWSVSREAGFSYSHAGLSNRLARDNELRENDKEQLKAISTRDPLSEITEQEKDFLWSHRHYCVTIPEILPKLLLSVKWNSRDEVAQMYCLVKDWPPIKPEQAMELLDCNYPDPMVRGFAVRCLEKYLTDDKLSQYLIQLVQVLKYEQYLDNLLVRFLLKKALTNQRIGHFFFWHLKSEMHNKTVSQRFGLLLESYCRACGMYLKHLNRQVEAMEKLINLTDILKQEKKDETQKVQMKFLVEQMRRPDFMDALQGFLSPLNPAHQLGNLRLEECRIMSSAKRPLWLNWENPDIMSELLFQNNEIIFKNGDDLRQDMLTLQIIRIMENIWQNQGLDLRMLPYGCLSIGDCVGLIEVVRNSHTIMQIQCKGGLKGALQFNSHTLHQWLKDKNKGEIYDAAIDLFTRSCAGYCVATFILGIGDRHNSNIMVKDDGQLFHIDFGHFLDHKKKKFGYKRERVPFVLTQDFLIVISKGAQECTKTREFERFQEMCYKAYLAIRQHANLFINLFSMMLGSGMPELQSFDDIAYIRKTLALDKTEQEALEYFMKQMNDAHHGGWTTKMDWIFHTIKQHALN", "experiment": "PI3K subunit activity ELISA", "type": "biochemical", "conditions": "100 nM", "description": "as §2, §3"}, "p110γ": {"molecular_target": "p110γ (Homo sapiens, UniProt P48736)", "sequence (P48736 whole entry)": "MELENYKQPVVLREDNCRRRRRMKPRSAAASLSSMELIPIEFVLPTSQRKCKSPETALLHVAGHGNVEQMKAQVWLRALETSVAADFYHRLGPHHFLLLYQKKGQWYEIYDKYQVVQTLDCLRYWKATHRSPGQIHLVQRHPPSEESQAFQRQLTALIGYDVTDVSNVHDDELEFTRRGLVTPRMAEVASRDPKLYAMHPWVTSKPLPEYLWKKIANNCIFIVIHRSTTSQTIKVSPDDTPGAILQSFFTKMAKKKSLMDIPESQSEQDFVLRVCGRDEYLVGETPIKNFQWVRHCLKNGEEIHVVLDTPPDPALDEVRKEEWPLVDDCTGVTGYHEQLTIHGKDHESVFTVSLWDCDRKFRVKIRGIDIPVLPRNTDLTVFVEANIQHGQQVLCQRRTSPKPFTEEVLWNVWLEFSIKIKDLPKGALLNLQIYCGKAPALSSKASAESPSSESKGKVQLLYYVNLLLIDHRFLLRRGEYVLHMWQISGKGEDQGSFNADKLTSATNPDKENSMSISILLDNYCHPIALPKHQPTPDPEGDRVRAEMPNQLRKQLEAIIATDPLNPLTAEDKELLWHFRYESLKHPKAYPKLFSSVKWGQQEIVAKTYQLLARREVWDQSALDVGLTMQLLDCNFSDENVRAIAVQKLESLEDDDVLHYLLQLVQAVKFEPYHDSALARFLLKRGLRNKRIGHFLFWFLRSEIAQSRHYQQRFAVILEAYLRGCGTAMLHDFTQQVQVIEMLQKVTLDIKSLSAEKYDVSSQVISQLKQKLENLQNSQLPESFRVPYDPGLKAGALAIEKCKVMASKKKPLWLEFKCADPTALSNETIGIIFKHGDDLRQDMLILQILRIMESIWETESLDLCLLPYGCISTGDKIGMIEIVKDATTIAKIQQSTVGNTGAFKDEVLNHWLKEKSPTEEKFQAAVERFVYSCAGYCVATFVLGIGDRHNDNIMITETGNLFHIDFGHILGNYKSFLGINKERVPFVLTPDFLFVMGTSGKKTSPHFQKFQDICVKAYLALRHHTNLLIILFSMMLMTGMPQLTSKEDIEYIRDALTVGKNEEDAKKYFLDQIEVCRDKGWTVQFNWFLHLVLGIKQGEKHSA", "experiment": "PI3K subunit activity ELISA", "type": "biochemical", "conditions": "100 nM", "description": "as §2, §3"}, "p110δ": {"molecular_target": "p110δ (Homo sapiens, UniProt O00329)", "sequence (O00329 whole entry)": "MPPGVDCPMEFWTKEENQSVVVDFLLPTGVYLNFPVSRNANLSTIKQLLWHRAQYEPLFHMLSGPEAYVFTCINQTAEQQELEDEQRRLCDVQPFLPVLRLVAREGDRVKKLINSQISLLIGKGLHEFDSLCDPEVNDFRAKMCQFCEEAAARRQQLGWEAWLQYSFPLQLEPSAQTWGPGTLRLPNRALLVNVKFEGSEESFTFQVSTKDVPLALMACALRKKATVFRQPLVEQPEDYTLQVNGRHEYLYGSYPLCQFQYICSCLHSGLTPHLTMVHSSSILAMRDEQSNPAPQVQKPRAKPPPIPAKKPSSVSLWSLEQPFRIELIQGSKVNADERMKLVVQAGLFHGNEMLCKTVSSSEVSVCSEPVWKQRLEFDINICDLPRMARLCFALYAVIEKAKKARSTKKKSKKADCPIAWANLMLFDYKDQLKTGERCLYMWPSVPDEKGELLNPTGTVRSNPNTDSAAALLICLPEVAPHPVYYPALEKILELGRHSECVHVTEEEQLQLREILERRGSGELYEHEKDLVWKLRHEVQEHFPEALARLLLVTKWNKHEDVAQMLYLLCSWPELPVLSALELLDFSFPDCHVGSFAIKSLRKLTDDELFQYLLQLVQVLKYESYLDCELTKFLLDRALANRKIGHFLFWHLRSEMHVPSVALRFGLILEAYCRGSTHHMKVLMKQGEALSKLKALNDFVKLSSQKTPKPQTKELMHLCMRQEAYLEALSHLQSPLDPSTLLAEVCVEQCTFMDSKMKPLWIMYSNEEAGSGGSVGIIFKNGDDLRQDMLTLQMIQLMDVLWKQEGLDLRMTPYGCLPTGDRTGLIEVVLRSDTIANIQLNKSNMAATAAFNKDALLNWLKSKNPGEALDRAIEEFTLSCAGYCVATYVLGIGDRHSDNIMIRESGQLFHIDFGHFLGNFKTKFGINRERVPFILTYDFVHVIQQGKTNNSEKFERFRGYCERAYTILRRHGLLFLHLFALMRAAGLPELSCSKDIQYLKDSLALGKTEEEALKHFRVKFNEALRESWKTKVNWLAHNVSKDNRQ", "sequence (P27986 whole entry partner)": "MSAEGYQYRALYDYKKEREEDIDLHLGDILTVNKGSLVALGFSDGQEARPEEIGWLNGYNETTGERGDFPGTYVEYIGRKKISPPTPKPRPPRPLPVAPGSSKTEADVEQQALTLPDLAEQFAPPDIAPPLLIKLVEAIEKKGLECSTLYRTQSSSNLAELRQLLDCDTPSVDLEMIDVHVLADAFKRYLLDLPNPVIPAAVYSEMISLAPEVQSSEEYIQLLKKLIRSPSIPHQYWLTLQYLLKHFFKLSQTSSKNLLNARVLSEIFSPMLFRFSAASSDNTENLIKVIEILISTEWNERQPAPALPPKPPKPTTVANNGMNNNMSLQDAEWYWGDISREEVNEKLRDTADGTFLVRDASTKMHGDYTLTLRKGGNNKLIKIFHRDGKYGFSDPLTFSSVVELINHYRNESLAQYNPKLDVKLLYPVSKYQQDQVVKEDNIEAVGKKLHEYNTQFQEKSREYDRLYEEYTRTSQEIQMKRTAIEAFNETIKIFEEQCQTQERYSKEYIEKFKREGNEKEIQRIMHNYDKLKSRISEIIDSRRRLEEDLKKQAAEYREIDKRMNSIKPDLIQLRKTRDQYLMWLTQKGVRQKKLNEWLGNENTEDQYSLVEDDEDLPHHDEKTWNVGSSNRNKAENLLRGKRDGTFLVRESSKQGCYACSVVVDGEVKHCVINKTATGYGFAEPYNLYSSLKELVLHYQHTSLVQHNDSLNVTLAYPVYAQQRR", "experiment": "PI3K subunit activity ELISA", "type": "biochemical", "conditions": "100 nM", "description": "as §2, §3"}}, "data": [{"smiles": "Cc1cc(C(C)Nc2ccccc2)c2nc(N3CCOCC3)cc(=O)n2c1", "note": "(stereo not drawn) [TGX-221]", "values": [{"measurement": "TMZ sensitivity", "setting": "U87MG cells", "result": "increased TMZ sensitivity"}, {"measurement": "AKT and RAC1/CDC42 activity", "setting": "[1]; 8 μM TGX-221, 24 hours", "result": "inactivated"}, {"measurement": "protein levels of MMP2", "setting": "[1]; 8 μM TGX-221, 24 hours", "result": "not"}, {"measurement": "protein levels of MMP9", "setting": "[1]; 8 μM TGX-221, 24 hours", "result": "decreased protein levels"}, {"measurement": "BIM-EL, BIM-L, BIM-S (apoptotic forms of BIM)", "setting": "[1]; 25 μM TGX-221, 96 hours", "result": "remarkable increase"}, {"measurement": "cleaved caspase 3 (c-CASP3)", "setting": "[1]; 25 μM TGX-221, 96 hours", "result": "remarkable increase"}, {"measurement": "levels of pFOXO3T32", "setting": "[1]; 25 μM TGX-221, 96 hours", "result": "significantly decreased"}, {"measurement": "tumor growth in mice", "setting": "tumor growth in mice", "result": "slow down tumor growth"}, {"measurement": "cell migration", "setting": "LN229/GSCs", "result": "inhibited the migration"}, {"measurement": "cell migration", "setting": "SF295 cells", "result": "inhibited the migration"}, {"measurement": "activity of p110β", "setting": "p110b; 10 nM TGX-221, ELISA", "result": "didn't inactivate p110β"}, {"measurement": "activity of p110b", "setting": "p110b; 100 nM, ELISA, isolated protein subunit", "result": "not effective"}, {"measurement": "activity of PI3K subunit p110c", "setting": "p110c", "result": "not effective"}, {"measurement": "activity of PI3K subunit p110γ", "setting": "p110γ", "result": "not effective"}, {"measurement": "activity of PI3K subunit p110δ", "setting": "p110δ", "result": "not effective"}]}]}
